Experiments:
[1] = Fluorescence quantum yield; settings: quenched substrates versus free fluorophores
Description: We determined the absorption spectrum of the DNP group and the emission spectrum of the ACC fluorophore in four different assay buffers. […] To determine whether this spectral overlap is sufficient for ACC fluorophore quenching, we synthesized ACC-GDEVD-OH, a caspase substrate cleavage product, and compared its fluorescence with that of the full-length substrate ACC-GDEVD*GVK(DNP)D at various concentrations (Fig. 3).

[2] = test system: Human neutrophil elastase (HNE); test: neutrophil elastase in 0.1 M HEPES and 0.5 M NaCl at pH 7.5; settings: 37 °C, up to 30 min
Trypsin = test: trypsin in 0.05 M Tris, 0.15 M NaCl, 0.01% Triton X100, pH 7.6; settings: 37 °C, up to 30 min
caspase-3 [3] = test: caspase-3 in caspase buffer, IQF library screening and kinetics; settings: human, 37 °C, up to 30 min
caspase-6 = caspase-6 in caspase buffer, IQF library screening; settings: human, 37 °C, up to 30 min
caspase-7 [4] = test: caspase-7 in caspase buffer, IQF library screening and kinetics; settings: human, 37 °C, up to 30 min
caspase-8 = caspase-8 in caspase buffer supplemented with 1 M sodium citrate; settings: human, 37 °C, up to 30 min
caspase-7 [5] = test: caspase-7 in 20 mM Pipes, 0.1 M NaCl, 1 mM EDTA, 10 mM DTT, 10% (w/v) sucrose, pH 7.2 to 7.4; settings: human, 37 °C, up to 30 min
caspase-3 [6] = test: caspase-3 in 20 mM Pipes, 0.1 M NaCl, 1 mM EDTA, 10 mM DTT, 10% (w/v) sucrose, pH 7.2 to 7.4; settings: human, 37 °C, up to 30 min
legumain = legumain in 40 mM citric acid, 1 mM EDTA, 120 mM Na2HPO4, 10 mM DTT, pH 5.8; settings: human, 37 °C, up to 30 min
MMP9 = MMP9 in 0.1 M Tris-HCl, 0.1 M NaCl, 10 mM CaCl2, pH 7.5; settings: 37 °C, up to 30 min
MMP2 = MMP2 in 0.1 M Tris-HCl, 0.1 M NaCl, 10 mM CaCl2, pH 7.5; settings: 37 °C, up to 30 min

Compound: COc1ccc2c(CC(=O)O)cc(=O)oc2c1 [MCA, 7-methoxy-coumarin-4-yl acetic acid]
- fluorescence quantum yield (ϕF) [1]: 0.718

Compound: MCA-GAEPV*SLK(dnp)L-NH2
- cleaved bond [2]: V-S

Compound: ACC-GGLS(P1)*IVK(DNP)G-NH2 [ACC-GGLS(P1)*IVK(DNP)G-NH2, P1 = Lysine]
- cleaved bond (Trypsin): Lysine-I

Compound: ACC-GDEVE/XKK(dnp)G-NH2 [DEVE/G]
- cleaved bond (caspase-3 [3]): E-G
- cleaved bond (caspase-6): E-Gly
- cleaved bond (caspase-7 [4]): E-G

Compound: ACC-GAEPV*SLK(dnp)L-NH2
- cleaved bond [2]: V-S

Compound: ACC-GDEVD*GVK(dnp)D-NH2
- cleaved bond (caspase-8): D-G
- cleaved bond (caspase-7 [5]): D-G
- cleaved bond (caspase-3 [6]): D-G

Compound: MCA-GPTN*KVK(dnp)R-NH2
- cleaved bond (legumain): N-K

Compound: ACC-GGLS(P1)*IVK(DNP)G-NH2 [ACC-GGLS(P1)*IVK(DNP)G-NH2, P1 = Arginine]
- cleaved bond (Trypsin): Arginine-I

Compound: ACC-GPTN*KVK(dnp)R-NH2
- cleaved bond (legumain): N-K

Compound: NC(=O)Cc1cc(=O)oc2cc(N)ccc12 [ACC, 7-amino-4-carbamoylmethylcoumarin]
- fluorescence quantum yield (ϕF) [1]: 0.861

Compound: ACC-GDEVE/XKK(dnp)G-NH2 [DEVE/A]
- cleaved bond (caspase-3 [3]): E-A
- cleaved bond (caspase-6): E-Ala
- cleaved bond (caspase-7 [4]): E-A

Compound: MCA-GDEVD*GVK(dnp)D-NH2
- cleaved bond (caspase-8): D-G
- cleaved bond (caspase-7 [5]): D-G
- cleaved bond (caspase-3 [6]): D-G

Compound: ACC-GPLG*LK(dnp)AR-NH2
- cleaved bond (MMP9): G-L
- cleaved bond (MMP2): G-L

Compound: MCA-GPLG*LK(dnp)AR-NH2
- cleaved bond (MMP9): G-L
- cleaved bond (MMP2): G-L
